Molecules are shown by their SMILES.

Experimental findings from US12391679B2, “Benzamide-substituted bicyclic imidazo- and pyrazolo-fused -pyridine, -pyrimide, and -pyridazine compounds for treatment of inflammatory diseases” (ONCO3R Therapeutics BV, priority 2019, dated 2025) are described below.

Assay [1] addresses T1, SIK2 (Homo sapiens, UniProt Q9H0K1).
T1 construct: purchased ThermoFisher Scientific PV4792
Kind of assay: ADP-Glo kinase assay, SIK2. Type of assay: biochemical. In outline: (§1)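 ADP-Glo format, luminescent. Room-temperature kinase reaction lasting 120 min, followed by ATP removal (40 min) and ADP detection (30 min); 10 μM staurosporine serves as full-inhibition control, 1% DMSO as uninhibited control.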
Background: ADP-Glo first removes unused ATP, then detects ADP through luciferase.

Assay [2] deals with LPS triggered IL-10 secretion in monocytes. Kind of assay: Monocytes assay: LPS-triggered IL-10 (ELISA). The format is cell-based, human. The conditions noted are these: Homo sapiens, Monocyte, LPS-triggered IL-10 induction, median maximal fold change vs LPS only, read-out: IL-10 FCmax median. The method, boiled down: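 CD14+ monocytes bead-isolated from human PBMCs, pretreated with compound 1 h at 37 °C (0.2% DMSO), then stimulated with LPS 200 ng/mL for 4 h. Supernatant IL-10 measured by chemiluminescent sandwich ELISA; fold change versus LPS only per concentration, reported as maximal fold change (FCmax).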
A general note: An ELISA detects its analyte on a solid surface through an enzyme-linked reagent.

In assay [3] the target is T2, SIK3 (Homo sapiens, UniProt Q9Y2K2).
T2 construct: purchased SignalChem S12-11G-100
Kind of assay: ADP-Glo kinase assay, SIK3. The format is biochemical. The method, boiled down:
as §1

For assay [4], the target named is T3, SIK1 (Homo sapiens, UniProt P57059).
T3 construct: purchased Carna Biosciences 02-131
The assay can be described thus: ADP-Glo kinase assay, SIK1. The format is biochemical. In outline: as §1

T2 sequence (Q9Y2K2 59-365 limits assumed): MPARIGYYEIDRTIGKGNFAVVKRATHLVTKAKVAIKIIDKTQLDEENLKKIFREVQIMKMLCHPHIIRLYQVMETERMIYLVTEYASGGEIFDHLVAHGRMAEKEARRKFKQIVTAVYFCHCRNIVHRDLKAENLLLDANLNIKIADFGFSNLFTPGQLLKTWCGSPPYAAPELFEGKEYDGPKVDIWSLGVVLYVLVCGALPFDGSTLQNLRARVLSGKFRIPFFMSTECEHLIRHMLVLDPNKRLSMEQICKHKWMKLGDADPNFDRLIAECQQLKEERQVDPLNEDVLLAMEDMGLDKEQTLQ
T1 sequence (Q9H0K1 whole entry): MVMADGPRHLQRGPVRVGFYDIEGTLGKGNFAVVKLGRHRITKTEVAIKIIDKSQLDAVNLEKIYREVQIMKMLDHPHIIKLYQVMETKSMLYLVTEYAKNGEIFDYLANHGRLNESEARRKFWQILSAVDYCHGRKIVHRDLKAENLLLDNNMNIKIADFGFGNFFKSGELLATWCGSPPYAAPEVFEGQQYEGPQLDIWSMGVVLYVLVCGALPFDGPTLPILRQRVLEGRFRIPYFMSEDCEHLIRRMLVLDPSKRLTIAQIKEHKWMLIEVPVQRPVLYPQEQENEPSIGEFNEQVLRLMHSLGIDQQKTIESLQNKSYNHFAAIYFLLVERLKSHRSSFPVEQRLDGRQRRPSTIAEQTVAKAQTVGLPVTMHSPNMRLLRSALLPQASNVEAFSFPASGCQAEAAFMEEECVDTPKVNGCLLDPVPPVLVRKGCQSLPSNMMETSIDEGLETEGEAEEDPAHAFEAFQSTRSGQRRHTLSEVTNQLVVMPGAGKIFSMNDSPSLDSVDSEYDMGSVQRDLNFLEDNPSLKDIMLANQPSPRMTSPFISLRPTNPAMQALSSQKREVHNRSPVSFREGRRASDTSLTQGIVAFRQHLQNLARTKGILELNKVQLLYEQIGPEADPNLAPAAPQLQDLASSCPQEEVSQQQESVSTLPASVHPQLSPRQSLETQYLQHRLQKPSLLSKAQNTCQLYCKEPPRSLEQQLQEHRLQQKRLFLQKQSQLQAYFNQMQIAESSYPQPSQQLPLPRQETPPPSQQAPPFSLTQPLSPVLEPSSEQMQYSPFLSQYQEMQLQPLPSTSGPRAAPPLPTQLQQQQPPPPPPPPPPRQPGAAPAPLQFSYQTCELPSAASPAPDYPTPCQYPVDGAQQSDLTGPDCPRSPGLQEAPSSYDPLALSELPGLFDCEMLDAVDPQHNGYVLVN
T3 sequence (P57059 whole entry): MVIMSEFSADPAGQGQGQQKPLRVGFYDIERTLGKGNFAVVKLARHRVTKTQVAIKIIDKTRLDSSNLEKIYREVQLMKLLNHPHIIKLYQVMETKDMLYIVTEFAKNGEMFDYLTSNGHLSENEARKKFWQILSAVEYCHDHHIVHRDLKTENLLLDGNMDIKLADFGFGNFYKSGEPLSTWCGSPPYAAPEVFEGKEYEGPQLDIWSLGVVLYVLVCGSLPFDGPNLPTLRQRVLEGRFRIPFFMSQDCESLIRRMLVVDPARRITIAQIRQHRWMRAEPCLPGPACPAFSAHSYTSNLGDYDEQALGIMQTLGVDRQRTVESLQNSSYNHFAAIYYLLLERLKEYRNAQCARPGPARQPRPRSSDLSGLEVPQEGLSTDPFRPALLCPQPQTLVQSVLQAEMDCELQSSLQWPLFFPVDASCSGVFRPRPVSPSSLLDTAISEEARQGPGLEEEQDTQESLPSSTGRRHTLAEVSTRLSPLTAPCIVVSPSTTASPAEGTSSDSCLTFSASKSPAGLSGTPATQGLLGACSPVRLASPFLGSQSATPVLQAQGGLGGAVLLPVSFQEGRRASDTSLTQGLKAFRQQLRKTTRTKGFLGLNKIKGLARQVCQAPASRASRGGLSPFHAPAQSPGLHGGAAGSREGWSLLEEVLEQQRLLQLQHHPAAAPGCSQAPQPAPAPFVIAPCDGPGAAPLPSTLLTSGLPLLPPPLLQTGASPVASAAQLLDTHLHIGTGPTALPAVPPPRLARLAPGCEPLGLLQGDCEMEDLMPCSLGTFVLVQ

A word on the IC50: it is the concentration that gives 50% inhibition. A high value points to weaker potency in that assay. Consider `COc1cc(-c2cnn3cc(C4(C#N)CCOCC4)ccc23)cc(OC(F)F)c1C(=O)NC1CC1` [Cpd 237, 4-[6-(4-cyanotetrahydropyran-4-yl)pyrazolo[1,5-a]pyridin-3-yl]-N-cyclopropyl-2-(difluoromethoxy)-6-methoxy-benzamide], for which the IC50 in assay [1] is above 500 nM; in assay [3], 0.01 to 10 nM; in assay [4], above 500 nM. Besides, the maximal fold induction in assay [2] is below 1.5.
For `COc1cc(-c2cnc3cc(C4CCC4)c(F)cn23)cc(OC(F)F)c1C(=O)NC1CC1` [Cpd 168, 4-(7-cyclobutyl-6-fluoro-imidazo[1,2-a]pyridin-3-yl)-N-cyclopropyl-2-(difluoromethoxy)-6-methoxy-benzamide], the IC50 fell in the range of 10 to 100 nM in assay [1], 0.01 to 10 nM in assay [3] and 100 to 500 nM in assay [4]. Further, the maximal fold induction in assay [2] lay in the range of 1.5 to 4.5.
